Legend:
[1] = tested on: NCI-H460; experiment: Antitumor activity against human H460 cells xenografted in mouse at 20 mg/kg, po administered once daily for 12 days relative to control; type: functional
[2] = biological target: T1, Histone deacetylase 8 (Homo sapiens, UniProt Q9BY41); experiment: Inhibition of HDAC8
T1 sequence (Q9BY41 whole entry): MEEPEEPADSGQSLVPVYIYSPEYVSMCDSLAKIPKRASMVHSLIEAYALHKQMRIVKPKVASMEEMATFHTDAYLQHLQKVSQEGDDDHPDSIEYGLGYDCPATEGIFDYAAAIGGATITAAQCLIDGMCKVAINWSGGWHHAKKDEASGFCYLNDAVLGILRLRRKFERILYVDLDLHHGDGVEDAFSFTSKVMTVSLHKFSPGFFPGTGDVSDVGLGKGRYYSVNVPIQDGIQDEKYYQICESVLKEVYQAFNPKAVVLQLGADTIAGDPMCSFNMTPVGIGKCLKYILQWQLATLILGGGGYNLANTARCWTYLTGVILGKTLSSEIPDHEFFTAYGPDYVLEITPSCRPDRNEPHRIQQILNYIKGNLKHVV

[3] = biological target: Histone deacetylase 5 (Homo sapiens, UniProt Q9UQL6); experiment: Inhibition of HDAC5
Chain of Histone deacetylase 5 (Q9UQL6 whole entry): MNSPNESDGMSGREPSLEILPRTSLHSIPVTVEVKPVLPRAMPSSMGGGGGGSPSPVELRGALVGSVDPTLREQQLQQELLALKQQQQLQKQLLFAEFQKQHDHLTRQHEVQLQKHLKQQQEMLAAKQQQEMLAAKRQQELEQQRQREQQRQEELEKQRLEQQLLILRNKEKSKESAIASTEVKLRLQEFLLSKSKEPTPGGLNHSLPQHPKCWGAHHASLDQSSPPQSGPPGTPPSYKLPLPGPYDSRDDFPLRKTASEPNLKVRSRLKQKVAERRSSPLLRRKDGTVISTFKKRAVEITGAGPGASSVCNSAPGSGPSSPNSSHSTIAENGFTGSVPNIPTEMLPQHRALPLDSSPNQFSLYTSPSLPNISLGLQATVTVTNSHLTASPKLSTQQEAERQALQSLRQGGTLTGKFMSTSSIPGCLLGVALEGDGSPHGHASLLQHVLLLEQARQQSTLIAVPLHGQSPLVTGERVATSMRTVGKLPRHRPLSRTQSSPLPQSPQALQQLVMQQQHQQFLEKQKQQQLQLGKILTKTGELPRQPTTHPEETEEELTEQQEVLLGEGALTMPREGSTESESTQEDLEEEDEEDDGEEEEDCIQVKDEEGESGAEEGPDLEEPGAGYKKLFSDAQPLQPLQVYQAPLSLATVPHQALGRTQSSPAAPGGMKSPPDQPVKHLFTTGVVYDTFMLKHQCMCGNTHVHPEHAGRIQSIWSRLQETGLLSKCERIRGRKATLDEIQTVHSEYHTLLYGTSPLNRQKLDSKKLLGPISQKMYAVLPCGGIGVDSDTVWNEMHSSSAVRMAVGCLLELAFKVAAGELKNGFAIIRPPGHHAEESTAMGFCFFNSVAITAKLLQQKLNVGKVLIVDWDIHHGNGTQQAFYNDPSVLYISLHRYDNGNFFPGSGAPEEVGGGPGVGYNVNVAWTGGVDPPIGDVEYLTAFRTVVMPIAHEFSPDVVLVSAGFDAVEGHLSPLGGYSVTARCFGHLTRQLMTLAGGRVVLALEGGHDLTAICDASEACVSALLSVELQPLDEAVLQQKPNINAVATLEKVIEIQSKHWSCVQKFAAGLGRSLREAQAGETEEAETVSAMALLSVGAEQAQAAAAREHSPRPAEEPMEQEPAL

[4] = tested on: HCT-116; experiment: cells; conditions: Homo sapiens
Description: Antiproliferative activity against human HCT116 cells by MTT assay

[5] = tested on: HCT-15; experiment: Antitumor activity against human HCT15 cells xenografted in mouse at 10 mg/kg, po administered once daily for 12 days relative to control; type: functional
[6] = Tmax in Sprague-Dawley rat at 5 mg/kg, po up to 6 hrs; type: ADME, organism-based; design: dose 5 mg/kg, route oral; conditions: in vivo
[7] = biological target: T2, Histone deacetylase 7 (Homo sapiens, UniProt Q8WUI4); experiment: Inhibition of HDAC7
T2 sequence (Q8WUI4 whole entry): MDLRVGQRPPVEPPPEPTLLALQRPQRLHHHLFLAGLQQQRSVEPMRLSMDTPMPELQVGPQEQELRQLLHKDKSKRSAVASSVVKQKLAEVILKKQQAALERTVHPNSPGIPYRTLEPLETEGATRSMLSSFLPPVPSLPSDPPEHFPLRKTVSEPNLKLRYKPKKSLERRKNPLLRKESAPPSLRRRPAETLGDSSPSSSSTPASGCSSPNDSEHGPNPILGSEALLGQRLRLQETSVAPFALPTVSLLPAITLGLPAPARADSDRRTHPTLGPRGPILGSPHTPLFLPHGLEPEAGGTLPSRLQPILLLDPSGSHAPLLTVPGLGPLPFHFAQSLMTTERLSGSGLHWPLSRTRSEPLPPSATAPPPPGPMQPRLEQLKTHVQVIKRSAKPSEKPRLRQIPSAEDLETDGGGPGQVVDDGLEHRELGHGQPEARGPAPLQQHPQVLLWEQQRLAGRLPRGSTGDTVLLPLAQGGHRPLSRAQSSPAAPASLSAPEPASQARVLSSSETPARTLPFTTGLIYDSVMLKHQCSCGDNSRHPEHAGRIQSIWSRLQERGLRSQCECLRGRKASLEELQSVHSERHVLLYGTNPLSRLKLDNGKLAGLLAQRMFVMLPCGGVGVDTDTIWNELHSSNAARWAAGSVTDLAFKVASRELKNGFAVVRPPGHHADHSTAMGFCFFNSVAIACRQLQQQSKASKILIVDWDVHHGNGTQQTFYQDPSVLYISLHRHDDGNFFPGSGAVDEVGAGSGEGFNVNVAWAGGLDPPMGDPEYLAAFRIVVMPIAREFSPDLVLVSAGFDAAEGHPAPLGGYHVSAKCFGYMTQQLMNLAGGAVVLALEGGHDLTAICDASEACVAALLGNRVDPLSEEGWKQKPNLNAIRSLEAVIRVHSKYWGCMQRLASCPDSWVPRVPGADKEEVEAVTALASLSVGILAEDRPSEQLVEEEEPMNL

[8] = tested on: Mus musculus; experiment: Toxicity in mouse xenografted with human H460 cells at 5 to 20 mg/kg, po administered once daily for 12 days; type: organism-based; design: dose 5-20 mg/kg, route oral; conditions: in vivo, 288 h
[9] = Volume of distribution at steady state in Sprague-Dawley rat at 2.5 mg/kg, iv up to 6 hrs; type: ADME, organism-based; design: dose 2.5 mg/kg, route intravenous; conditions: in vivo, read-out: Vdss
[10] = biological target: Histone deacetylase 2 (Homo sapiens, UniProt Q92769)
Chain of Histone deacetylase 2 (Q92769 whole entry): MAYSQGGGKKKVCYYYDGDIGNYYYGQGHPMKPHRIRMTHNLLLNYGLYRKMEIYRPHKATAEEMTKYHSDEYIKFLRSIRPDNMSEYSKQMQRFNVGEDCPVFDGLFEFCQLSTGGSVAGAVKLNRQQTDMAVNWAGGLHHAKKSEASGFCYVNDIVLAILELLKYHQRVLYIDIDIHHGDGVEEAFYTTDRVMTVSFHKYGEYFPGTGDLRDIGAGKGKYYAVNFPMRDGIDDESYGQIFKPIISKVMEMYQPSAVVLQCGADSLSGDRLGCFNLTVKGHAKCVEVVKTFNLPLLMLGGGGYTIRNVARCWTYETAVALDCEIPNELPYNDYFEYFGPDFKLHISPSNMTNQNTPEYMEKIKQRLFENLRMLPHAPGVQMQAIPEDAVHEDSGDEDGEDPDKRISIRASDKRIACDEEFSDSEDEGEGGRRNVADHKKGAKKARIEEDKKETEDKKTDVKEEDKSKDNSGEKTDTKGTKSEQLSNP

[11] = Oral bioavailability in Sprague-Dawley rat at 5 mg/kg up to 6 hrs; type: ADME, organism-based; conditions: in vivo
[12] = tested on: HMEC; experiment: Antiproliferative activity against HMEC by MTT assay; type: cell-based; conditions: Homo sapiens

SMILES: Nc1ccccc1NC(=O)c1ccc(CNc2nccc(-c3ccn[nH]3)n2)cc1
- T/C [1]: 34%
- IC50 [2]: > 10 µM
- IC50 [3]: > 10 µM
- IC50 [4]: 0.3 µM
- T/C [5]: 63%
- Tmax [6]: 30 min
- IC50 [7]: > 20 µM
- Activity [8]: Non-toxic
- Vd [9]: 0.13 L/kg
- IC50 [10]: 0.14 µM
- bioavailability [11]: 16%
- IC50 [12]: 24 µM

— ChEMBL document CHEMBL1143305, “SAR and biological evaluation of analogues of a small molecule histone deacetylase inhibitor N-(2-aminophenyl)-4-((4-(pyridin-3-yl)pyrimidin-2-ylamino)methyl)benzamide (MGCD0103)” (Bioorg Med Chem Lett, 2009)
